From US12414960B2, “Analogues of oleuropein and oleacein and uses thereof” (Attica Sciences Ltd., priority 2020, dated 2025)

Columns and labels:
[1] = system: MIA PaCa-2 pancreatic cancer cells; test: Cell Glo luminescence cell growth assay, MIA PaCa-2; format: cell-based, human; conditions: Homo sapiens, MIA PaCa-2, 24 h, NS = not statistically significant, read-out: Effectiveness to suppress MIA PaCa-2 cell growth (cell growth inhibition)
Source text: (§1) The CellTiter-Glo® Luminescent Cell Viability Assay (Promega Corporation; Madison, WI) is a homogeneous method of determining the number of viable cells in culture based on quantitation of the ATP present, an indicator of metabolically active cells. The homogeneous assay procedure involves adding the single reagent (CellTiter-Glo® Reagent) directly to cells cultured in serum-supplemented medium. The homogeneous “add-mix-measure” format results in cell lysis and generation of a luminescent signal proportional to the amount of ATP present. The amount of ATP is directly proportional to the number of cells present in culture.
(§2) Cancer cells (3,000 cells/well) were harvested in a 96-well plate. Then, the cancer cells were treated with GS compounds and incubated for 24 hours. The MT Cell Viability Substrate, NanoLuc® Enzyme and cell culture medium was equilibrated to 37° C. The 2× RealTime-Glo™ reagent was prepared by diluting the MT Cell Viability Substrate and NanoLuc® Enzyme in 37° C. cell culture medium to a 2× concentration for each reagent. For example, 1 mL of 2× RealTime-Glo™ reagent was prepared by adding 2 μL of MT Cell Viability Substrate, 1,000×, and 2 μL of NanoLuc® Enzyme, 1,000×, to 996 μL of cell culture medium to form the 2× RealTime-Glo™ reagent. Then, an equal volume of 2× RealTime-Glo™ reagent was added to the cancer cells. The cells were kept for ˜20 minutes in the cell culture incubator and then luminescence was measured by using a plate-reading luminometer.
MIA PaCa-2 is a human pancreatic ductal adenocarcinoma cell line derived from the carcinoma of a person.
(§3) The effects of exemplary compounds on cancer cell lines and one non-tumorigenic cell line (control) were investigated using a high throughput screening assay. More specifically, the effects of the GS compounds on cell growth was evaluated by the XTT assay for cell lines HepG2, HeLa, MCF7 ER+, MDA-MB-231, and MKN-45, and by the Cell Glo luminescence assay for cell lines MIA PaCa-2, HCT-116, MCF-10A, and PANC-1.

[2] = system: HeLa cervical cancer cells; test: XTT cell growth assay, HeLa; format: cell-based, human; conditions: Homo sapiens, HeLa, 24 h, NS = not statistically significant, read-out: Effectiveness to suppress HeLa cell growth (cell growth inhibition)
Source text: (§4) The XTT assay is used to measure cellular metabolic activity as an indicator of cell viability, proliferation and cytotoxicity. This non-radioactive, colorimetric assay system was first described by Scudiero, et al. in 1988 (Paull, Kenneth D. et al., J Heterocycl Chem, 1988, 25: 911-914; Scudiero, Dominic A. et al., Cancer Res, 1988, 48: 4827-4833) and improved in subsequent years by several other investigators (Weislow, Owen S. et al., J Natl Cancer Inst, 1989, 81(8): 577-586; Roehm, N. W. et al., J Immunol Methods, 1991, 142: 257-265).
(§5) The XTT assay is based on the reduction of a yellow tetrazolium salt (sodium 3′-[1-(phenylaminocarbonyl)-3,4-tetrazolium]-bis (4-methoxy6-nitro) benzene sulfonic acid hydrate or XTT) to an orange formazan dye by metabolically active cells (FIG. 8). The formazan dye formed is soluble in aqueous solutions and is directly quantified using a scanning multiwell spectrophotometer (ELISA reader). An increase in number of living cells results in an increase in the overall activity of mitochondrial dehydrogenases in the sample. This increase directly correlates to the amount of orange formazan formed, as monitored by the absorbance. Reduced number of living cells leads to reduced metabolism of quaternary salt and therefore reduced absorption.
(§6) Cell viability was assessed using the XTT assay kit (Roche, Mannheim, Germany) as described previously (Kouka, Paraskevi et al., Oxid Med Cell Longev. 2019, Article ID 1870965). Briefly, cancer cells per well were cultured in a 96-well plate in Dulbecco's modified Eagle's medium (DMEM). Following a 24 h incubation, 5, 10 and 50 μM of the tested GS compound was diluted in a serum-free DMEM and administered for 24 h. Subsequently, 50 μL of the XTT reagent (50:1) was added to each well. After 4 h of incubation, the absorbance was monitored at 450 nm and also at 630 nm as a reference wavelength in a BioTek ELx800 microplate reader (BioTek Instruments Inc., Winooski, VT, USA). As a negative control, samples containing serum-free DMEM only were used.
HeLa is a human immortal cell line used in scientific research. It is the oldest and most commonly used human cell line. The line was derived from cervical cancer cells taken on Feb. 8, 1951 from Henrietta Lacks, a patient who died of cancer on Oct. 4, 1951.
as §3

[3] = system: MKN-45 gastric cancer cells; test: XTT cell growth assay, MKN-45; format: cell-based, human; conditions: Homo sapiens, MKN-45, 24 h, NS = not statistically significant, read-out: Effectiveness to suppress MKN-45 cell growth (cell growth inhibition)
Source text: as §4, §5, §6
MKN-45 is a human gastric adenocarcinoma, established from the poorly differentiated adenocarcinoma of the stomach (medullary type) of a person.
as §3

[4] = system: MDA-MB-231 triple negative breast cancer cells; test: XTT cell growth assay, MDA-MB-231; format: cell-based, human; conditions: Homo sapiens, MDA-MB-231, 24 h, NS = not statistically significant, read-out: Effectiveness to suppress MDA-MB-231 cell growth (cell growth inhibition)
Source text: as §4, §5, §6
MDA-MB-231 is a human epithelial breast cancer cell line that was established from a pleural effusion of a person with a metastatic mammary adenocarcinomal and is one of the most commonly used breast cancer cell lines in medical research laboratories.
as §3

[5] = Deoxyribose degradation assay (hydroxyl radical scavenging); format: biochemical; conditions: NS = not statistically significant
Experimental: The hydroxyl radical (OH.) is an extremely reactive in biological systems and has been implicated as highly damaging species in free radical pathology, capable of damaging biomolecules of the living cells. These radical combines with nucleotides in DNA and cause strand breakage leading to carcinogenesis, mutagenesis and cytotoxicity. Hydroxyl radical (OH.) scavenging capacity of an extract is directly related to its antioxidant activity.
The effect of extracts on hydroxyl radicals was assayed by using the deoxyribose method. 2-Deoxyribose is degraded on exposure to hydroxyl radicals generated by Fenton's reaction. The ability to neutralize the OH. is estimated as the rate of inhibition of the oxidation of 2-deoxyribose by the OH. (FIG. 5).
The measurement of the hydroxyl radical scavenging activity was evaluated for each of the GS compound by evaluating the pink chromogen absorption at 532 nm by spectrophotometry as described previously (Perjesi, Pal et al., Open Med Chem J., 2011, 5: 61-67

HepG2 liver cancer cells = test: XTT cell growth assay, HepG2; format: cell-based, human; conditions: Homo sapiens, HepG2, 24 h, NS = not statistically significant, read-out: Effectiveness to suppress HepG2 cell growth (cell growth inhibition)
Source text: as §4, §5, §6
Hep G2 (or HepG2) is a human liver cancer cell line. Hep G2 is an immortal cell line which was derived from the liver tissue of an adolescent with a well-differentiated hepatocellular carcinoma. Hep G2 cells are a suitable in vitro model system for the study of polarized human hepatocytes.
as §3

[6] = system: MCF-7 ER+ breast cancer cells; test: XTT cell growth assay, MCF-7 ER+; format: cell-based, human; conditions: Homo sapiens, MCF7, 24 h, NS = not statistically significant, read-out: Effectiveness to suppress MCF7 cell growth (cell growth inhibition)
Source text: as §4, §5, §6
MCF-7 ER+ is a human breast cancer cell line isolated in 1970 from a person. Prior to MCF-7, it was not possible for cancer researchers to obtain a mammary cell line that was capable of living longer than a few months.
as §3

[7] = ABTS radical cation scavenging assay; format: biochemical; conditions: NS = not statistically significant
Source text: The method of estimating antioxidant capacity, based on the ability to interact with the ABTS.+ radical cation was first performed by Miller et al. in 1993 (Miller, Nicholas et al., Clinical Science, 1993, 84: 407-412, “A novel method for measuring the antioxidant capacity and its application to monitoring the antioxidant status in premature neonates”). The mechanism of interaction of the antioxidant agents to be examined with the ABTS.+ radical is similar to that of the DPPH. radical, which can be inactivated either by the addition of an electron or by the addition of a hydrogen atom. However, unlike the DPPH. radical, which is a stable radical from the beginning, the ABTS.+ radical must be produced by the oxidation of ABTS. Thus, in order to estimate the antioxidant capacity of a substance, the formation of the ABTS.+ radical must first precede and the addition of the substance to be examined must follow. The addition of the antioxidant agent is performed after the production of the root ABTS.+ to avoid the interaction of the antioxidant agents with the oxidizing agents used for the oxidation of ABTS.
The oxidation of ABTS takes place either through chemical reactions with various reagents or through the action of enzymes such as peroxidases. The ABTS.+ radical from the moment it is formed is stable, has a green color and absorbs at 730 nm. When a substance with antioxidant activity is added to the solution, then the ABTS.+ radical is reduced by the addition of a hydrogen (or electron) atom, resulting in reduced visual absorption.
To assess the antioxidant capacity of the samples, the oxidation of ABTS was performed enzymatically through the action of horseradish peroxidase (HRP), in the presence of H2O2 (FIG. 3)
The anti-oxidant capacity of the GS compounds was evaluated by performing the ABTS assay as previously described (Kouka, Paraskevi et al., Oxid Med Cell Longev. 2019, Article ID 1870965). Briefly, in a total reaction volume of 1 mL in distilled water (dH2O), ABTS.^+ (1 mM), H2O2 (30 μM), and horseradish peroxidase (HRP) (6 μM) in 50 mM phosphate-buffered saline were added. The solution was incubated for 45 min at room temperature (RT) in the dark. Finally, 10 μL of the tested GS compound at various concentrations was added, and the absorbance was monitored on a Hitachi U-1900 radio beam spectrophotometer (serial no. 2023-029; Hitachi Ltd.) at 730 nm. In each experiment, a blank without the HRP was used, while the ABTS.^+ radical solution without the extract was used as the control. The RSC percentage of the tested extracts was calculated using the following equation: RSC (%)=[(ODcontrol−ODcompound)/ODcontrol]×100, where ODcontrol and OD sample are the optical density (OD) values of the control and the test sample, respectively.

[8] = system: HCT-116 colon cancer cells; test: Cell Glo luminescence cell growth assay, HCT-116; format: cell-based, human; conditions: Homo sapiens, HCT-116, 24 h, NS = not statistically significant, read-out: Effectiveness to suppress HCT-116 cell growth (cell growth inhibition)
Source text: as §1, §2
HCT-116 is a human colorectal cancer cell lines that has a mutation in RAS proto-oncogene.
as §3

pACLY (S455) = test: ELISA of pACLY (S455) / ACLY enzymatic activity in PANC-1 cells; format: cell-based, human; conditions: 5 μM
Experimental: ELISA assay was used to evaluate the effect of GS compounds on protein activity levels in PANC-1 cancer cells. PANC-1 cells were serum-starved overnight and then treated with rIGF1 (100 ng/mL) for 24 hours, with or without GS27 (5 μM). The levels of the following proteins were evaluated by ELISA assay: a) p70 S6 (T389) (cat no. 54164C, Cell Signaling); b) pAKT (S473), (cat no. 80895, Cell Signaling); c) pACLY (S455), (cat no. okag1672, Avivasysbio); d) pAMPK (T172) (cat no. 7959C, Cell Signaling) and e) p65/NFKB (S536), (cat no. 7173, Cell Signaling).
PANC-1 is a human pancreatic ductal adenocarcinoma cell line derived from the carcinoma of a person.
The molecular mechanism of action of GS27, a compound that has exerted potent anti-cancer activity in different cancer cell lines including pancreatic cancer cells, was investigated. Oleacein has been implicated to have anti-inflammatory and metabolic effects, thus the potential effects of GS27 in different metabolic and inflammatory pathways were evaluated. Specifically, the protein levels of p70 S6 (T389), pAKT (S473), pACLY (S455), pAMPK (T172) and p65/NFKB (S536) were evaluated by ELISA assay in PANC-1 pancreatic cancer cells treated with 5 μM GS27. GS27 reduced p70 S6 and AKT phosphorylation levels, while it increased AMPK phosphorylation.
The effects of different GS compounds on ACLY enzymatic activity were evaluated by ELISA assay in PANC-1 pancreatic cancer cells. […] This finding is unexpected, since GS21 has a very similar structure with GS27, with the only difference being the presence of an oxygen atom in ester GS21 instead of a sulfur atom in thioester GS27.

Row | Compound | inhibition at 50 µM [1] | inhibition at 50 µM [2] | inhibition at 50 µM [3] | inhibition at 50 µM [4] | Deoxyribose Degradation Assay IC50 [5] | inhibition at 50 µM (HepG2 liver cancer cells) | inhibition at 50 µM [6] | ABTS Radical Cation Scavenging Assay IC50 [7] | inhibition at 1 µM [8] | ACLY enzymatic activity (ELISA) (pACLY (S455))
1 | C/C=C(/C=O)[C@@H](CC=O)CC(=O)OCCC1CCCCC1 [GS22, 2-cyclohexylethyl (S,E)-4-formyl-3-(2-oxoethyl)hex-4-enoate] | 28% | 48.6% | 35.8% | 48% | 16.8 μg extract/mL | 66.8% |  |  |  | 
2 | C/C=C1/[C@H](OC2OC(CO)C(O)C(O)C2O)OC=C(C(=O)O)[C@H]1CC(=O)OCCc1cccc(O)c1 (stereo in doubt) [GS14, (2S,4S,E)-3-ethylidene-4-(2-(3-hydroxyphenethoxy)-2-oxoethyl)-2-{[(2R,3S,4R,5R,6S)-3,4,5-trihydroxy-6-(hydroxymethyl)tetrahydro-2H-pyran-2-yl]oxy}-3,4-dihydro-2H-pyran-5-carboxylic acid] |  | 29.5% |  | 38.2% |  | 10% | 28.4% | 66 μg extract/mL | 26.4% | 
3 | C/C=C(/C=O)[C@@H](CC=O)CC(=O)OCCc1ccccc1 [GS21, (35,4E)-4-formyl-3-(2-oxoethyl)-4-hexenoic acid 2-phenylethyl ester] |  | 75.8% | 49.4% | 52.5% | 14.4 μg extract/mL |  | 66% |  | 21.5% | small effect
